Columns and labels:
[1] = test system: A2780 human ovarian tumor xenograft; assay: In vivo oral antitumor activity vs Sc A2780; conditions: po gavage; for Oral Efficacy vs. Sc A2780 Log Cell Kill: q2d x 5, at optimal or maximum tolerated dose of Table III (mg/kg per administration), log cell kill = (T-C)/(TVDT x 3.32); for Oral Efficacy vs. Sc A2780 (Cures/Treated): q2d x 5, same dose as log cell kill, cure = tumor of 35 mg or less at termination
Description: The experiments were carried out using athymic (“nude”) mice. […] The compound was administered at the dose indicated in Table III, namely, once daily every other day for five treatments (i.e. q2dx5).

[2] = test system: tumors in mice; conditions: AACR 1999 abstract 1905; cited from earlier work
[3] = test system: human or animal models; conditions: cited from earlier work; for Oral activity in human or animal models: prior art
[4] = administered orally; quote from WO98/53811; cited from earlier work
[5] = test system: human tumor xenografts; assay: Orally administered paclitaxel against human tumor xenografts; conditions: oral; athymic mice or athymic rats

Compound	Oral Efficacy vs. Sc A2780 Log Cell Kill [1]	Oral Efficacy vs. Sc A2780 (Cures/Treated) [1]	other results
3′-N-Cyclobutyl-4-deacetyl-3′-N-debenzoyl-4-O-methoxycarbonyi-paciitaxel [Id]	4.1	0/8	
CC(=O)O[C@H]1C(=O)[C@@]2(C)[C@H]([C@H](OC(=O)c3ccccc3)[C@]34OC(=O)O[C@H]3[C@H](OC(=O)[C@H](O)[C@H](CC(C)C)NC(=O)OC(C)(C)C)C(C)=C1C4(C)C)[C@]1(OC(C)=O)CO[C@@H]1C[C@@H]2O [IDN-5109]			Oral activity against tumors in mice [2]: oral activity against tumors in mice
COC(=O)O[C@@]12COC1C[C@H](O)[C@@]1(C)C(=O)[C@H](OC(C)=O)C3=C(C)[C@@H](OC(=O)[C@H](O)[C@@H](NC(=O)OC(C)(C)C)C(C)(C)C)C[C@@](O)([C@@H](OC(=O)c4ccccc4)C21)C3(C)C (some centres unmarked) [Ia, 3′-tert-Butyl-3′-N-tert-butyloxycarbonyl-4-deacetyl-3′-dephenyl-3′-N-debenzoyl-4-O-methoxycarbonyl-paclitaxel]	4.4	0/8	
COC(=O)OC12COC1CC(O)C1(C)C(=O)C(OC(C)=O)C3=C(C)C(OC(=O)C(O)C(NC(=O)OC(C)(C)C)C(C)C)CC(O)(C(OC(=O)c4ccccc4)C21)C3(C)C (centres unmarked) [Ib, 3′-N-tert-Butyloxycarbonyl-4-deacetyl-3′-dephenyl-3′-N-debenzoyl-3′-isopropyl-4-O-methoxycarbonyl-paclitaxel]	3.0	1/8	
COC(=O)OC12COC1CC(O)C1(C)C(=O)C(OC(C)=O)C3=C(C)C(OC(=O)C(O)C(NC(=O)CC(C)(C)C)c4ccccc4)CC(O)(C(OC(=O)c4ccccc4)C21)C3(C)C (centres unmarked) [Ic, 3′-N-Neopentylcarbonyl-4-deacetyl-3′-N-debenzoyl-4-O-methoxycarbonyl-paclitaxel]	3.8	0/8	
COC(=O)OC12COC1CC(O)C1(C)C(=O)C(OC(C)=O)C3=C(C)C(OC(=O)C(O)C(NC(=O)OC4CCCCC4)C(C)(C)C)CC(O)(C(OC(=O)c4ccccc4)C21)C3(C)C (centres unmarked) [Ie, 3′-tert-Butyl-3′-N-cyclohexyloxycarbonyl-4-deacetyl-3′-dephenyl-3′-N-debenzoyl-4-O-methoxycarbonyl-paclitaxel]	1.5	0/8	
COC(=O)O[C@@]12CO[C@@H]1C[C@H](O)[C@@]1(C)C(=O)[C@H](OC(C)=O)C3=C(C)[C@@H](OC(=O)[C@H](O)[C@@H](NC(=O)CC(C)(C)C)C(C)(C)C)C[C@@](O)([C@@H](OC(=O)c4ccccc4)[C@H]21)C3(C)C [If, 3′-tert-Butyl-4-deacetyl-3′-dephenyl-3′-N-debenzoyl-3′-N-neopentylcarbonyl-4-O-methoxycarbonyl-paclitaxel]	1.8	0/8	
COC(=O)O[C@@]12CO[C@@H]1C[C@H](O)[C@@]1(C)C(=O)[C@H](OC(C)=O)C3=C(C)[C@@H](OC(=O)[C@H](O)[C@@H](NC(=O)OC(C)(C)C)c4ccccc4)C[C@@](O)([C@@H](OC(=O)c4ccccc4)[C@H]21)C3(C)C [Ig, 4-Deacetyl-3′-N-debenzoyl-3′-N-tertbutoxycarbonyl 4-O-methoxycarbonyl-paclitaxel]	0.9	0/8	
CCCCOC(=O)NC(c1ccccc1)C(O)C(=O)OC1CC2(O)C(OC(=O)c3ccccc3)C3C4(OC(=O)OC)COC4CC(O)C3(C)C(=O)C(OC(C)=O)C(=C1C)C2(C)C (centres unmarked) [Ih, 4-Deacetyl-3′-N-debenzoyl-3′-N-nbutoxycarbonyl-4-O-methoxycarbonyl-paclitaxel]	1.0	1/8	
COC(=O)O[C@@]12CO[C@@H]1C[C@H](O)[C@@]1(C)C(=O)[C@H](OC(C)=O)C3=C(C)[C@@H](OC(=O)[C@H](O)[C@@H](NC(=O)C4CCC4)C(C)(C)C)C[C@@](O)([C@@H](OC(=O)c4ccccc4)[C@H]21)C3(C)C [Ij, 3′-N-Debenzoyl-3′-N-cyclobutylcarbonyl-3′-dephenyl-3′-tert-butyl-4-deacetyl-4-methoxycarbonyl Paclitaxel]	2.1	0/8	
COC(=O)OC12COC1CC(O)C1(C)C(=O)C(OC(C)=O)C3=C(C)C(OC(=O)C(O)C(NC(=O)c4ccco4)C(C)(C)C)CC(O)(C(OC(=O)c4ccccc4)C21)C3(C)C (centres unmarked) [Ik, 3′-N-Debenzoyl-3′-N-(2-furoyl)-3′-dephenyl-3′-tert-butyl-4-deacetyl-4-methoxycarbonyl Paclitaxel]	2.2	0/8	
CC(=O)O[C@@]12CO[C@@H]1C[C@H](O)[C@@]1(C)C(=O)[C@H](O)C3=C(C)[C@@H](OC(=O)[C@H](O)[C@@H](NC(=O)OC(C)(C)C)c4ccccc4)C[C@@](O)([C@@H](OC(=O)c4ccccc4)[C@H]21)C3(C)C [TAXOTERE®, docetaxel]			Oral activity in human or animal models [3]: no oral activity
CC(=O)O[C@H]1C(=O)[C@@]2(C)[C@H]([C@H](OC(=O)c3ccccc3)[C@]3(O)C[C@H](OC(=O)[C@H](O)[C@@H](NC(=O)c4ccccc4)c4ccccc4)C(C)=C1C3(C)C)[C@]1(OC(C)=O)CO[C@@H]1C[C@@H]2O [paclitaxel]			Oral absorption [4]: less than 1%; Antitumor activity on oral administration ([3]; oral, up to 160 mg/kg/day, Suffness et al.): no evidence of antitumor activity; Oral activity in human or animal models [3]: no oral activity; Activity of orally administered paclitaxel against human tumor xenografts [5]: unsuccessful
